System: Amb a 1-specific T cell lines (TCL)
Assay: T cell epitope mapping of Amb a 1.3: proliferation (3H-thymidine uptake) of TCL stimulated with synthetic peptides
Format: cell-based, human
Conditions: for No. positive patients SI > 3 / No. positive patients SI > 5 / % (positive patients SI > 3) / % (positive patients SI > 5): TCL from 48 ragweed pollen-allergic patients, peptide 5 μg/ml; for No. positive patients SI > 3 / No. positive patients SI > 5: 3H-thymidine uptake after 48 hrs; for No. positive patients SI > 3 / % (positive patients SI > 3): stimulation index > 3; for No. positive patients SI > 5 / % (positive patients SI > 5): stimulation index > 5; for T cell activating region recognized by % of patients: classes of prevalence referring to SI>5, 48 TCL
In short: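 Amb a 1-specific TCL from ragweed-allergic patients, raised with ragweed extract or rAmb a 1.3, stimulated 48 h with 121 overlapping 12-mer peptides plus one C-terminal 13-mer (9-residue overlap) at 5 μg/ml. Proliferation by 3H-thymidine uptake; SI against the mean cpm of the ten least stimulating peptides, epitope when SI ≥3.0.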

Sequence	No. positive patients SI > 3	No. positive patients SI > 5	% (positive patients SI > 3)	% (positive patients SI > 5)	reactivity with T cells isolated from allergic individuals	T cell activating region recognized by % of patients
IHDVKVLPGGMI (Amb a 1 fragment) [Peptide 49]	3	2	6.3%	4.2%	–	–
DVANPKEGTLRF (Amb a 1 fragment) [Peptide 25]	2	0	4.2%	0.0%	–	–
NETRSLQACEAY (Amb a 1 fragment) [Peptide 5]	4	0	8.3%	0.0%	–	–
PSVNETRSLQAC (Amb a 1 fragment) [Peptide 4]	4	1	8.3%	2.1%	–	–
IFVTSGSDPVLT (Amb a 1 fragment) [Peptide 110]	13	11	27.1%	22.9%	reactivity with T cells	–
NGAIFVTSGSDP (Amb a 1 fragment) [Peptide 109]	12	9	25.0%	18.8%	reactivity with T cells	–
TGTGAAESMAWN (Amb a 1 fragment) [Peptide 102]	9	6	18.8%	12.5%	reactivity with T cells	–
LTSSAGVLSCRP (Amb a 1 fragment) [Peptide 120]	14	9	29.2%	18.8%	reactivity with T cells	–
KADWENNRQALA (Amb a 1 fragment) [Peptide 12]	5	1	10.4%	2.1%	reactivity with T cells	–
VAFNMFTDNVDQ (Amb a 1 fragment) [Peptide 80]	10	6	20.8%	12.5%	reactivity with T cells	–
QELVVNSDKTID (Amb a 1 fragment) [Peptide 36]	14	12	29.2%	25.0%	reactivity with T cells	–
KNIIIHNINIHDVKVLPG (Amb a 1 fragment) [Peptide 46-48]	–	–	–	–	reactivity with T cells	recognized by 20.8%
LPGGMIKSNDGP (Amb a 1 fragment) [Peptide 51]	6	3	12.5%	6.3%	reactivity with T cells	–
PLWIIFKNDMVI (Amb a 1 fragment) [Peptide 31]	11	10	22.9%	20.8%	reactivity with T cells	–
TDNVDQRMPRCR (Amb a 1 fragment) [Peptide 82]	3	2	6.3%	4.2%	–	–
EAYNIIDKCWRG (Amb a 1 fragment) [Peptide 8]	3	1	6.3%	2.1%	–	–
CSLSKSFDGLVD (Amb a 1 fragment) [Peptide 63]	2	2	4.2%	4.2%	–	–
QELVVNSDKTIDGRG (Amb a 1 fragment) [Peptide 36-37]	–	–	–	–	reactivity with T cells	recognized by 25.0%
SSAPTILCQGNR (Amb a 1 fragment) [Peptide 93]	6	4	12.5%	8.3%	reactivity with T cells	–
TIDGRGVKVEII (Amb a 1 fragment) [Peptide 39]	19	16	39.6%	33.3%	reactivity with T cells	–

Sequence	No. positive patients SI > 3	No. positive patients SI > 5	% (positive patients SI > 3)	% (positive patients SI > 5)	reactivity with T cells isolated from allergic individuals	T cell activating region recognized by % of patients
DKDLLENGAIFV (Amb a 1 fragment) [Peptide 107]	30	27	62.5%	56.3%	reactivity with T cells	–
FDGLVDVTLGST (Amb a 1 fragment) [Peptide 65]	2	1	4.2%	2.1%	–	–
NGGLTLMNVKNI (Amb a 1 fragment) [Peptide 43]	4	1	8.3%	2.1%	–	–
PILRQASDGDTI (Amb a 1 fragment) [Peptide 55]	3	1	6.3%	2.1%	–	–
IIHNINIHDVKV (Amb a 1 fragment) [Peptide 47]	14	10	29.2%	20.8%	reactivity with T cells	–
PVQSAGMIPAEP (Amb a 1 fragment) [Peptide 114]	8	5	16.7%	10.4%	reactivity with T cells	–
QGFAKGTYGGKW (Amb a 1 fragment) [Peptide 17]	2	1	4.2%	2.1%	–	–
NYDRWGTYAIGG (Amb a 1 fragment) [Peptide 89]	11	6	22.9%	12.5%	reactivity with T cells	–
KNDMVINLNQELVVN (Amb a 1 fragment) [Peptide 33-34]	–	–	–	–	reactivity with T cells	recognized by 27.1%
GNRFLAPDDQIK (Amb a 1 fragment) [Peptide 96]	5	4	10.4%	8.3%	reactivity with T cells	–
YTVTSNLDDDVA (Amb a 1 fragment) [Peptide 22]	4	4	8.3%	8.3%	–	–
VQDKGMLATVAF (Amb a 1 fragment) [Peptide 77]	7	4	14.6%	8.3%	reactivity with T cells	–
VTLGSTHVTISN (Amb a 1 fragment) [Peptide 67]	6	2	12.5%	4.2%	reactivity with T cells	–
KNVLARTGTGAA (Amb a 1 fragment) [Peptide 100]	6	5	12.5%	10.4%	reactivity with T cells	recognized by 10.4%
VAFNMFTDNVDQRMP (Amb a 1 fragment) [Peptide 80-81]	–	–	–	–	reactivity with T cells	recognized by 12.5%
AIKLTSSAGVLSCRP (Amb a 1 fragment) [Peptide 119-120]	–	–	–	–	reactivity with T cells	–
TQQSKAILLGAD (Amb a 1 fragment) [Peptide 72]	4	2	8.3%	4.2%	–	–
SDPVLTPVQSAG (Amb a 1 fragment) [Peptide 112]	7	3	14.6%	6.3%	reactivity with T cells	–
PDDQIKKNVLARTGT (Amb a 1 fragment) [Peptide 98-99]	–	–	–	–	reactivity with T cells	recognized by 16.7%
